One data set concerns HDACs 4-9. The experiment in a line: in vitro HDAC inhibition assay, HDACs 4-9. It is filed as biochemical. Conditions: concentrations as high as 20 μM; FIG. 20.
For another data set, the system named is HbE mRNA. The experiment in a line: HbE mRNA levels in peripheral blood of rats. It is filed as in vivo. The following applies: rat, 10 and 30 mg/kg; FIG. 27A-B. As for the experimental part: I. A. Rats were dosed once daily by oral gavage for 6 consecutive days at 0 mg/kg, 10 mg/kg, or 30 mg/kg per dose (See FIG. 25A). Dosing days are indicated by a down arrow (FIG. 25A). Peripheral blood was drawn on the indicated days and analyzed for drug level in plasma (PK), complete blood counts (CBC), or isolation of total ribonucleic acid (RNA). […] For each individual rat, HbE mRNA was expressed relative to HbB mRNA and then normalized to their predose level (time=day 0). Points are the average of n=4 animals with error bars showing the standard deviation (FIG. 27A).

The subject of the next data set is Gata2. The data set is described as follows: Gata2 shRNA knockdown with Compound 001 treatment. It is filed as cell-based, human. As for the experimental part:
In FIG. 13A-D, expanded hematopoietic progenitors were infected with lentivirus carrying short hairpin RNAs (shRNA) directed against the Gata2 gene (shG2-1, shG2-2) or a non-targeting control shRNA (shCtrl). Transduced cells were selected by puromycin treatment. […] RNA was isolated at the indicated time points and the level of Gata2 mRNA was determined by quantitative real time PCR (QRT-PCR). In FIG. 7A, K562 cells were infected with lentivirus as described above. […] RNA was isolated at indicated time point and the level of Gata2 mRNA was determined by quantitative real time PCR (QRT-PCR). In FIG. 7B, protein levels at Day 3 were determined by Western blot using antibodies against Gata2 and beta-actin as a loading control. […] Data was first normalized to beta-actin control and then expressed relative to vehicle treated cells.
Since Gata2 levels decline during erythroid differentiation (FIGS. 1B and 1C), knockdown experiments were performed entirely in CS1 expansion media, which supports hematopoietic progenitors, and maintained Gata2 mRNA at a constant level in shCtrl cells following infection (FIG. 13B). Gata2 mRNA was reduced by 85% or 50% in shG2-1 or shG2-2 cells, respectively, while Gata2 protein was reduced by 50% by each hairpin, relative to shCtrl cells (FIG. 13B and FIG. 13D).

The test system of data set [1] is human bone marrow-derived CD34+ cells. The data set is described as follows: viability of expanded CD34+ cells. It is filed as cell-based. Conditions: 2 days of treatment. From the text: This possibility was first tested by measuring the viability of expanded human bone marrow-derived CD34+ cells, composed of primitive and more differentiated hematopoietic progenitors of multiple lineages, following 2 days of treatment with compound.

The test system of another data set is HbD promoter. The data set is described as follows: Gata2 binding at the β-like globin gene cluster (ChIP-seq, ChIP-QPCR). Type of data set: cell-based. From the text: The tight temporal correlation between Gata2 and HbG activation following HDAC1/2 inhibition argues that Gata2 may affect the beta-globin locus directly. […] In FIG. 8C, the ChIP-seq results in FIG. 8A were validated in a second experimental series using QRT-PCR and two primer sets directed to the delta globin promoter. A primer set at the beta globin promoter was used as a control. […] This region is suspected in playing a role in switching from fetal to adult globin during development, as naturally occurring deletions of this region are associated with elevated fetal hemoglobin in adults (Sankaran V G, Xu J, Byron R, et al. A functional element necessary for fetal hemoglobin silencing. The New England journal of medicine. 2011; 365(9):807-814.).
To investigate this possibility, the β-like globin gene cluster was looked at in the Gata2 ChIP-seq data described above.

For another data set, the target named is HDAC3 (Homo sapiens, UniProt O15379). The experiment in a line: in vitro biochemical HDAC inhibition assay.
HDAC3, sequence (O15379 whole entry): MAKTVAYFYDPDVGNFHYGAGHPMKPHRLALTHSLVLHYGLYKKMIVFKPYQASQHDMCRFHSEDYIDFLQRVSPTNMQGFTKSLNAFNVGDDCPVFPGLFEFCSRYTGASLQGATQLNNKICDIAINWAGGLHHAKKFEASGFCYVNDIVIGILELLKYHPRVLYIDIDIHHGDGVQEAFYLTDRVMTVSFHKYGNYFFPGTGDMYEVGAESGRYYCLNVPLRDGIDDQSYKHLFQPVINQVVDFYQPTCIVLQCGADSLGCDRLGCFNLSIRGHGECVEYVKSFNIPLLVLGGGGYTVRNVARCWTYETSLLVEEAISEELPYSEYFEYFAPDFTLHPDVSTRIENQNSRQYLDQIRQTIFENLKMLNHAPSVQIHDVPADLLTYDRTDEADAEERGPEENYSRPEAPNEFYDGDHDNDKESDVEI
HDAC3, sequence (Q9Y618 395-489 partner limits assumed): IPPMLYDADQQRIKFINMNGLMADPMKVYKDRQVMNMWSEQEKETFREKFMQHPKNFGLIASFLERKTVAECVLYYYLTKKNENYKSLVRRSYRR
Another data set deals with Gata2 mRNA. The data set is described as follows: induction of Gata2 mRNA in erythroid progenitors by HDAC1,2 inhibitors. Conditions: erythroid progenitors differentiated 3 days with compound; FIG. 2A-C. Type of data set: cell-based, human. An excerpt: Human bone marrow derived CD34+ cells were expanded for 7 days as described by Sankaran et al., Science, vol. 322(5909), pp. 1839-42 (2008). Cells were then differentiated, in the presence of the indicated compound (i.e., Compounds 001, Compound Y, Compound 2005, Compound 2004, Compound 2003), for 3 days in media supporting erythropoiesis (Hu et al., “Isolation and functional characterization of human erythroblasts at distinct stages: implications for understanding of normal and disordered erythropoiesis in vivo”, Blood, vol. 121(16), pp. 3246-53 ([…])). FIG. 2A, FIG. 2B, and FIG. 2C each represents an experimental series performed on different days and with different donor cells.

Data set [2] has as its target T1, HDAC2 (Homo sapiens, UniProt Q92769).
The nature of data set [3]: pharmacokinetics of Compound 001 in rats. It is filed as in vivo. The following applies: rat, plasma, read-out: minimum drug exposure for the entire dosing period. As to the method:
I. A. Rats were dosed once daily by oral gavage for 6 consecutive days at 0 mg/kg, 10 mg/kg, or 30 mg/kg per dose (See FIG. 25A). Dosing days are indicated by a down arrow (FIG. 25A). Peripheral blood was drawn on the indicated days and analyzed for drug level in plasma (PK), complete blood counts (CBC), or isolation of total ribonucleic acid (RNA). C. […] Points are the average of replicate animals, error bars are the standard deviation of replicate animals (FIG. 25C).

In data set [4] the target is T1, HDAC2. The data set is described as follows: in vitro biochemical HDAC inhibition assay.
For the next data set, the target named is HDAC1 (Homo sapiens, UniProt Q13547). The data set is described as follows: in vitro biochemical HDAC inhibition assay.
HDAC1, sequence (Q13547 whole entry): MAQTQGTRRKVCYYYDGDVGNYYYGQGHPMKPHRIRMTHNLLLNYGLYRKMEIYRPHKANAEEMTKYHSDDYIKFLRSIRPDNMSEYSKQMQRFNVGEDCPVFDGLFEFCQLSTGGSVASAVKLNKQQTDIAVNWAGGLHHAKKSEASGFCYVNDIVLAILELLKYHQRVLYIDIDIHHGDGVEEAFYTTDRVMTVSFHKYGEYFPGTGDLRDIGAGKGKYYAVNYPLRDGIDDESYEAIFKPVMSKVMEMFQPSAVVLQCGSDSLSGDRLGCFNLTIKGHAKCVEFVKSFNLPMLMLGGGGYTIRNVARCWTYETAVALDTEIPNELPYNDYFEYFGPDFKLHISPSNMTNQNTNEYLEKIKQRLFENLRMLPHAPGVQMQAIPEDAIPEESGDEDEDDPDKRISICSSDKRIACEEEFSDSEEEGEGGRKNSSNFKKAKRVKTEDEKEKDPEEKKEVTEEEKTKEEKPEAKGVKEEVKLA

These results are taken from patent US20160137630A1, “INDUCTION OF GATA2 BY HDAC1 AND HDAC2 INHIBITORS” (ACETYLON PHARMACEUTICALS, INC., priority 2014, published 2016).

Usually pIC50 stands for the negative decadic logarithm of the IC50, by convention in mol/L.

pIC50: −log10 of the molar value. “Also recorded” adds a separate entry of the source. Read-outs that look alike come from different tables or passages of the source.

T1 sequence (Q92769 whole entry): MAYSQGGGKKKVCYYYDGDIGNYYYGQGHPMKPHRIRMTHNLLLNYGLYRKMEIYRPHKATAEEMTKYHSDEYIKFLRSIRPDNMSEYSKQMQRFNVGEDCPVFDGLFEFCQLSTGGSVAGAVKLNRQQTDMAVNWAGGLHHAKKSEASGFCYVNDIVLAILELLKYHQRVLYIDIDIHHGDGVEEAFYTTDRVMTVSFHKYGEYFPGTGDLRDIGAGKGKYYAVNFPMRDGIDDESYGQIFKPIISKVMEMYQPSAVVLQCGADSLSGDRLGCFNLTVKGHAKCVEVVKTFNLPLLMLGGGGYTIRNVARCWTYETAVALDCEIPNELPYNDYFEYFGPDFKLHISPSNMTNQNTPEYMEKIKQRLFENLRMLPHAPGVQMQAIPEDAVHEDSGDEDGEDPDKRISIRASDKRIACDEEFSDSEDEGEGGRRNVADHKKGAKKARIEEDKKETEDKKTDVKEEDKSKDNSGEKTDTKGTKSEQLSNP

Regarding `Nc1ccc(-c2cccs2)cc1NC(=O)c1ccc2nc(N3CCNCC3)ccc2c1` [Compound 001, N-(2-amino-5-(thiophen-2-yl)phenyl)-2-(piperazin-1-yl)quinoline-6-carboxamide], in the data set on HDACs 4-9, the “inhibition of HDACs 4-9” value is on record as “negligible inhibitory activity; also recorded: no inhibition”. Further, the “HbE mRNA relative to HbB mRNA, normalized to predose” value in the data set on HbE mRNA is reported as “dose-dependent increase”. Besides, the “Gata2 mRNA induction” value in the data set on Gata2 (1 uM, cells expressing shCtrl) was found to be 1.4 fold. For the same molecule, in the data set on Gata2 (1 uM, cells expressing shCtrl), the Gata2 protein induction is listed as 5 fold. For the same molecule, the “reduction of magnitude of HbG mRNA induction relative to shCtrl cells” value with Gata2 (shG2-1 and shG2-2 cells) is recorded as 25%. For the same molecule, the “fold less cytotoxic than Entinostat” value in data set [1] came out at 10 fold. For the same molecule, the pIC50 in data set [1] (Homo sapiens, 48 h, FIG. 19A) is 4.35; at HDAC3 (Table 2, read-out: IC50 HDAC3) it was 6.94; at HDAC3 (pre-incubation time of 24 hours, FIG. 9A, 17B, read-out: IC50 against HDAC3), 5.89; against HDAC2 [2], 7.38; at HDAC2 [4] (Table 2, read-out: IC50 HDAC2) it was 7.82; at HDAC2 [4] (pre-incubation time of 24 hours, FIG. 9A, 17B, read-out: IC50 against HDAC2) it was 7.74. Moreover, the pIC50 at HDAC1 (Table 2, read-out: IC50 HDAC1) is 8.40; on HDAC1 (pre-incubation time of 24 hours, FIG. 9A, 17B, read-out: IC50 against HDAC1) it was 8.15. Besides, in the data set on HbD promoter (ChIP-seq), the “increase in Gata2 binding at the HbD promoter region” value was determined as 1.8 fold. Also, the “increase in Gata2 binding at the HbD promoter” value with HbD promoter (independent ChIP-QPCR experiment) came out at 2 fold. The “selectivity over HDAC3” value on HDAC3 was “approximately 100 fold”. For the same molecule, the “Gata2 mRNA” value in the data set with Gata2 mRNA is listed as “induction of Gata2 mRNA”. The concentration at 6 days in data set [3] (high dose (30 mg/kg once daily oral gavage, 6 days)) was ≥ 5000 nM; in [3] (low dose (10 mg/kg once daily oral gavage, 6 days)) it was ≥ 1000 nM.
